How the values were obtained:
Ras-transformed cells = Ras-transformed cells (Alessi et al., 1995); cited from earlier work
MAPK pathway = test: Time course of MAPK pathway inhibition after treatment; format: cell-based
Text: (2) A “Ras signaling pathyway inhibitor” is defined herein as an agent that blocks the activity of any protein in the signal transduction pathway shown in FIG. 1. A particularly preferred Ras signaling pathway inhibitor is a “MEK inhibitor”, which is defined herein as an agent that blocks the in vitro enzyme activity of a MEK (MAPK/ERK kinase) protein (preferably inhibiting MEK1 and MEK2), and thus blocks the activation of a MAPK protein as evidenced by a block in the phosphorylation of the MAPK protein. This can be detected by western blot analysis for phosphorylated MAPK as described in, e.g., Dudley et al., Proc Natl Acad Sci. 92:7686-7689 (1995), and Favata et al., J Bio Chem. 273:18623-32(1998).
“Sustained effect” is defined herein as a prolonged/enhanced apoptotic response to combination treatment with a FPT I and a MEK1,2 inhibitor in comparison to single treatment alone. The consequences of a “sustained effect” can be monitored either by measurement of MAPK activity or cell death or apoptosis, as described in previously. The effective time course for inhibition of MAPK pathway by the individual drugs is dose dependent. […] (See, e.g., FIG. 6.

[1] = tested on: human tumor cell lines as xenografts; conditions: immuno-compromised mice (Liu et al., 1998); cited from earlier work
human tumor cell lines = conditions: variety of human tumor cell lines, in vitro (Liu et al., 1998); cited from earlier work
MEK = conditions: Favata et al., 1998; cited from earlier work

Question: For `COc1cccc(-c2cc(=O)c3ccccc3o2)c1N` [PD098059], which “effect on growth factor-mediated proliferation and anchorage-independent growth” value (Ras-transformed cells) is on record?
Answer: Its value is “blocks”.

Question: For `NC(=O)N1CCC(CC(=O)N2CCC(C3c4ncc(Br)cc4CCc4cc(Cl)cc(Br)c43)CC2)CC1` (stereo not drawn) [SCH 66336], which “duration of the MAPK inhibitory effect after treatment” value (MAPK pathway) is on record?
Answer: Its value is at most 72 h.

Question: What about the “time of optimal MAPK pathway inhibition after treatment” value (MAPK pathway; dose dependent) of the same compound?
Answer: Its value is 12 to 18 h.

Question: What about the “inhibition of growth as xenografts” value [1] of the same compound?
Answer: The value was “inhibition”.

Question: And the “inhibition of anchorage-independent growth” value (human tumor cell lines)?
Answer: The value was “inhibition of anchorage-independent growth”.

Question: Which “affinity of binding to MEK relative to PD098059” value (MEK) does the source give for `N#CC(=C(/N)Sc1ccccc1N)/C(C#N)=C(\N)Sc1ccccc1N` [U0126] here?
Answer: The value was “higher affinity than PD098059”.
